According to US20220411419A1, “SMALL MOLECULE MODULATORS OF MHC-I” (RetroVirox, Inc., priority 2018, published 2022):

How the values were obtained:
[1] = test system: downmodulation of MHC-I molecules expressed on the surface of HIV infected SupT1 cells; test: cells; details: for EC50: Human immunodeficiency virus 1, SUP-T1, read-out: EC50 for inhibition of MHC-I downmodulation utilizing the R1 parameter; for activity at 100 µM: Human immunodeficiency virus 1, SUP-T1, read-out: R1 @ 100 μM (R1 value for MHC-I downmodulation as % of the vehicle control)
in vitro = details: human, uninfected SupT1 cells

Row | SMILES | EC50 [1] [µM] | CC50 at 48 h (in vitro) [µM] | activity at 100 µM [1] [%] | CC50 (in vitro) [µM]
1 | Cc1nc(NC(=O)COc2cccc3c2OC(C)(C)C3)ccc1Br [Compound 72, N-(5-Bromo-6-methylpyridin-2-yl)-2-((2,2-dimethyl-2,3-dihydrobenzofuran-7-yl)oxy)acetamide] | 1.4 | > 100 | – | –
2 | Cc1ccc(NC(=O)COc2cccc3c2OC(C)(C)C3)nc1C [Compound 73, 2-((2,2-Dimethyl-2,3-dihydrobenzofuran-7-yl)oxy)-N-(5,6-dimethylpyridin-2-yl)acetamide] | 0.21 | > 100 | – | –
3 | C=Cc1ccc(NC(=O)COc2cccc3c2OC(C)(C)C3)nc1C [Compound 74, 2-((2,2-Dimethyl-2,3-dihydrobenzofuran-7-yl)oxy)-N-(6-methyl-5-vinylpyridin-2-yl)acetamide] | 1.3 | > 125 | – | –
4 | CCc1ccc(NC(=O)COc2cccc3c2OC(C)(C)C3)nc1C [Compound 75, 2-((2,2-Dimethyl-2,3-dihydrobenzofuran-7-yl)oxy)-N-(5-ethyl-6-methylpyridin-2-yl)acetamide] | 0.21 | 120 | – | –
5 | Cc1cc(NC(=O)COc2cccc3c2OC(C)(C)C3)ncc1Br [Compound 76, N-(5-Bromo-4-methylpyridin-2-yl)-2-((2,2-dimethyl-2,3-dihydrobenzofuran-7-yl)oxy)acetamide] | 23 | > 125 | – | –
6 | Cc1cnc(NC(=O)COc2cccc3c2OC(C)(C)C3)cc1C [Compound 77, 2-((2,2-Dimethyl-2,3-dihydrobenzofuran-7-yl)oxy)-N-(4,5-dimethylpyridin-2-yl)acetamide] | > 25 | > 125 | 21 | > 125
7 | CN(C(=O)COc1cccc2c1OC(C)(C)C2)c1ccc(Br)cn1 [Compound 78, N-(5-Bromopyridin-2-yl)-2-((2,2-dimethyl-2,3-dihydrobenzofuran-7-yl)oxy)-N-methylacetamide] | 17 | > 125 | – | –
8 | C=Cc1ccc(N(C)C(=O)COc2cccc3c2OC(C)(C)C3)nc1 [Compound 79, 2-((2,2-Dimethyl-2,3-dihydrobenzofuran-7-yl)oxy)-N-methyl-N-(5-vinylpyridin-2-yl)acetamide] | 5 | > 125 | – | –
9 | CCc1ccc(N(C)C(=O)COc2cccc3c2OC(C)(C)C3)nc1 [Compound 80, 2-((2,2-Dimethyl-2,3-dihydrobenzofuran-7-yl)oxy)-N-(5-ethylpyridin-2-yl)-N-methylacetamide] | 4.6 | > 125 | – | –
10 | CN(C(=O)COc1cccc2c1OC(C)(C)C2)c1ccc(Cl)nn1 [Compound 81, N-(6-Chloropyridazin-3-yl)-2-((2,2-dimethyl-2,3-dihydrobenzofuran-7-yl)oxy)-N-methylacetamide] | > 25 | > 125 | 67 | > 125
11 | C=Cc1ccc(N(C)C(=O)COc2cccc3c2OC(C)(C)C3)nn1 [Compound 82, 2-((2,2-Dimethyl-2,3-dihydrobenzofuran-7-yl)oxy)-N-methyl-N-(6-vinylpyridazin-3-yl)acetamide] | 5.9 | > 125 | – | –
12 | CCc1ccc(N(C)C(=O)COc2cccc3c2OC(C)(C)C3)nn1 [Compound 83, 2-((2,2-Dimethyl-2,3-dihydrobenzofuran-7-yl)oxy)-N-(6-ethylpyridazin-3-yl)-N-methylacetamide] | 13 | > 125 | – | –
13 | C=Cc1ccc(NC(=O)COc2cccc3c2OC(C)(C)C3)nn1 [Compound 84, 2-((2,2-Dimethyl-2,3-dihydrobenzofuran-7-yl)oxy)-N-(6-vinylpyridazin-3-yl)acetamide] | 0.89 | > 100 | – | –
14 | CCc1ccc(NC(=O)COc2cccc3c2OC(C)(C)C3)nn1 [Compound 85, 2-((2,2-Dimethyl-2,3-dihydrobenzofuran-7-yl)oxy)-N-(6-ethylpyridazin-3-yl)acetamide] | 0.38 | > 100 | – | –
15 | C=C(C)c1ccc(NC(=O)COc2cccc3c2OC(C)(C)C3)nn1 [Compound 86, 2-((2,2-Dimethyl-2,3-dihydrobenzofuran-7-yl)oxy)-N-(6-(prop-1-en-2-yl)pyridazin-3-yl)acetamide] | 1.1 | > 100 | – | –
16 | CC(C)c1ccc(NC(=O)COc2cccc3c2OC(C)(C)C3)nn1 [Compound 87, 2-((2,2-Dimethyl-2,3-dihydrobenzofuran-7-yl)oxy)-N-(6-isopropylpyridazin-3-yl)acetamide] | 0.58 | > 100 | – | –
17 | Cc1ccc(N(C(=O)COc2cccc3c2OC(C)(C)C3)c2ccc(C)nn2)cc1 [Compound 88, 2-((2,2-Dimethyl-2,3-dihydrobenzofuran-7-yl)oxy)-N-(6-methylpyridazin-3-yl)-N-(p-tolyl)acetamide] | 3.25 | > 100 | – | –

Row | SMILES | EC50 [1] [µM] | CC50 at 48 h (in vitro) [µM] | activity at 100 µM [1] [%] | CC50 (in vitro) [µM]
18 | Cc1ccc(N(C(=O)COc2cccc3c2OC(C)(C)C3)c2ccccc2)nn1 [Compound 89, 2-((2,2-Dimethyl-2,3-dihydrobenzofuran-7-yl)oxy)-N-(6-methylpyridazin-3-yl)-N-phenylacetamide] | 0.38 | > 100 | – | –
19 | Cc1csc(N(C(=O)COc2cccc3c2OC(C)(C)C3)c2cnccn2)n1 [Compound 90] | > 25 | > 100 | 31 | > 100
20 | Cc1csc(N(C(=O)COc2cccc3c2OC(C)(C)C3)c2ccccn2)n1 [Compound 91, 2-((2,2-Dimethyl-2,3-dihydrobenzofuran-7-yl)oxy)-N-(4-methylthiazol-2-yl)-N-(pyridin-2-yl)acetamide] | 0.89 | > 100 | – | –
21 | Cc1ccc(N(C(=O)COc2cccc3c2OC(C)(C)C3)c2nc3c(s2)CCCC3)nn1 [Compound 92, 2-((2,2-Dimethyl-2,3-dihydrobenzofuran-7-yl)oxy)-N-(6-methylpyridazin-3-yl)-N-(4,5,6,7-tetrahydrobenzo[d]thiazol-2-yl)acetamide] | 25 | > 100 | – | –
22 | Cc1ccc(N(C(=O)COc2cccc3c2OC(C)(C)C3)c2nc(C)cs2)nn1 [Compound 93, 2-((2,2-Dimethyl-2,3-dihydrobenzofuran-7-yl)oxy)-N-(6-methylpyridazin-3-yl)-N-(4-methylthiazol-2-yl)acetamide] | > 25 | > 100 | 65 | > 100
23 | CC1(C)Cc2cccc(OCC(=O)N(c3ccccc3)c3nc4c(s3)CCCC4)c2O1 [Compound 94, 2-((2,2-Dimethyl-2,3-dihydrobenzofuran-7-yl)oxy)-N-phenyl-N-(4,5,6,7-tetrahydrobenzo[d]thiazol-2-yl)acetamide] | 0.0015 | > 125 | – | –
24 | Cc1csc(N(C(=O)COc2cccc3c2OC(C)(C)C3)c2ccncc2)n1 [Compound 95, 2-((2,2-Dimethyl-2,3-dihydrobenzofuran-7-yl)oxy)-N-(4-methylthiazol-2-yl)-N-(pyridin-4-yl)acetamide] | 0.95 | > 125 | – | –
25 | Cc1csc(N(C(=O)COc2cccc3c2OC(C)(C)C3)c2ccncn2)n1 [Compound 96, 2-((2,2-Dimethyl-2,3-dihydrobenzofuran-7-yl)oxy)-N-(4-methylthiazol-2-yl)-N-(pyrimidin-4-yl)acetamide] | > 25 | > 125 | 32 | > 125
26 | Cc1csc(N(C(=O)COc2cccc3c2OC(C)(C)C3)c2cncnc2)n1 [Compound 97, 2-((2,2-Dimethyl-2,3-dihydrobenzofuran-7-yl)oxy)-N-(4-methylthiazol-2-yl)-N-(pyrimidin-5-yl)acetamide] | > 25 | > 125 | 5.4 | > 125
27 | CC1(C)Cc2cccc(OCC(=O)N(c3ccccc3)c3nc4ccccc4s3)c2O1 [Compound 98, N-(Benzo[d]thiazol-2-yl)-2-((2,2-dimethyl-2,3-dihydrobenzofuran-7-yl)oxy)-N-phenylacetamide] | 29 | > 90 | – | –
28 | COC(=O)CN(C(=O)COc1cccc2c1OC(C)(C)C2)c1nc2c(s1)CCCC2 [Compound 99, Methyl 2-(2-((2,2-dimethyl-2,3-dihydrobenzofuran-7-yl)oxy)-N-(4,5,6,7-tetrahydrobenzo[d]thiazol-2-yl)acetamido)acetate] | 22 | > 125 | – | –
29 | CC1(C)Cc2cccc(OCC(=O)Nc3nc4c(-c5ccncc5)cccc4s3)c2O1 [Compound 101, 2-((2,2-dimethyl-2,3-dihydrobenzofuran-7-yl)oxy)-N-(4-(pyridin-4-yl)benzo[d]thiazol-2-yl)acetamide] | > 25 | > 100 | 40 | > 100
30 | CC1(C)Cc2cccc(OCC(=O)Nc3nc4c(-c5ccc[nH]5)cccc4s3)c2O1 [Compound 102, N-(4-(1H-Pyrrol-2-yl)benzo[d]thiazol-2-yl)-2-((2,2-dimethyl-2,3-dihydrobenzofuran-7-yl)oxy)acetamide] | > 25 | > 100 | 20 | > 100
31 | Cc1ccc(NC(=O)CCc2cccc3c2OC(C)(C)C3)nn1 [Compound 103, 3-(2,2-Dimethyl-2,3-dihydrobenzofuran-7-yl)-N-(6-methylpyridazin-3-yl) propanamide] | 1.48 | > 100 | – | –
32 | CC1(C)Cc2cccc(CCC(=O)N(Cc3ccccn3)c3nc4c(s3)CCCC4)c2O1 [Compound 104, 3-(2,2-Dimethyl-2,3-dihydrobenzofuran-7-yl)-N-(pyridin-2-ylmethyl)-N-(4,5,6,7-tetrahydrobenzo[d]thiazol-2-yl)propanamide] | 1.1 | > 125 | – | –
33 | CC1(C)Cc2cccc(CCC(=O)Nc3nc4c(s3)CCCC4)c2O1 [Compound 105, 3-(2,2-Dimethyl-2,3-dihydrobenzofuran-7-yl)-N-(4,5,6,7-tetrahydrobenzo[d]thiazol-2-yl)propanamide] | 0.39 | > 125 | – | –
